“Also recorded” adds a separate entry of the source. Counter-ions that a name gives are not always drawn. Like-named read-outs stand apart in the source and are kept apart here.
Legend:
BSC-1 cells [1] = experiment: [14C]COM crystal adhesion to BSC-1 cell monolayers; type: cell-based, African green monkey; conditions: for IC50 / Half-maximal concentration: concentration that inhibited crystal adhesion by 50%; for IC50 / Kd / Half-maximal concentration / Langmuir affinity constant (dissociation constant): N.I. = noninhibitory; for IC50: read-out: Half-maximal concentration; for Kd / Langmuir affinity constant (dissociation constant): slope of Langmuir isotherm plot of crystal adhesion; for Kd: read-out: Langmuir affinity constant (dissociation constant); for effect on adhesion of COM crystals: concentrations as high as 1 μM
Protocol: (§1) Renal epithelial cells of the nontransformed African green monkey line (BSC-1) were used. Cells were grown in Dulbecco-Vogt modified Eagle's medium containing 25 mM glucose (DMEM), 1.6 μM biotin and 1% calf serum at 38° C. in a CO2 incubator. Under these conditions, BSC-1 cells achieved confluence at 10^6 cells per 60-mm plastic dish (Nunc). High-density, quiescent cultures were prepared by plating 2×10^6 cells in a 60-mm dish. The spent medium was changed after 3 days so that there were 3-4×10^6 cells/dish 6 days later. Medium was then aspirated and replaced with fresh medium containing […] and 0.01% calf serum; 3 days later the quiescent cultures were used for study.
(§2) Crystals are sterilized by heating to 180° C. overnight.
(§3) High-density, quiescent cultures of BSC-1 cells, MDCK cells, or Balb/c3T3 fibroblasts are prepared. At the time of assay, the medium is aspirated and replaced with 5 ml of phosphate-buffered saline (PBS) (10 mM Na2PO4, 155 mM NaCl, 5.4 mM KCl, pH 7.4 at 37° C.) to which the compound under investigation is added. […] The culture dishes are gently agitated for 5 seconds to uniformly distribute crystals which subsequently settle to the surface of the cell monolayer under the force of gravity. After two minutes buffer is aspirated and the cells are then washed three times with PBS (5 ml). The cell monolayer is then scraped directly into a scintillation vial containing 6 N HCl (0.5 ml) to which 4.5 ml of Ecoscint (National Diagnostics, E. Palmetto, Fla.) is added, and the amount of radioactivity is measured as described by Riese, et al. (1992).

BSC-1 cells [2] = experiment: Crystal endocytosis by BSC-1 cells; type: cell-based, African green monkey; conditions: for combined stimulatory effects on COM crystal endocytosis: ADP 200 μM and EGF 5 ng/ml; for combined inhibitory effects on COM crystal endocytosis: RGDS 10 μg/ml, heparin 5 μg/ml and TGF-β2 2 ng/ml
Protocol: as §1
(§4) At specified times after addition of crystals to high-density, quiescent cultures the medium was aspirated and a solution of crystalline trypsin was used to detach cells which were then inspected under a polarizing microscope. One hundred cells from each culture were counted, and each cell was scored for the presence of one or more internalized crystal(s).

BSC-1 cells [3] = experiment: Adhesion of agent-coated COM crystals to BSC-1 cells; type: cell-based, African green monkey; conditions: compared with uncoated control crystals
Protocol: Each tube is then centrifuged at 3000 g for 5 minutes. The supernatant is gently aspirated and replaced with a supersaturated calcium oxalate solution to resuspend the coated crystals. To assure removal of any nonabsorbed compound, crystals are resuspended and washed three times in succession. Cell-associated radioactivity is determined 2 minutes after addition of these coated crystals as described herein.

MDCK cells [4] = experiment: Crystal endocytosis by MDCK cells; type: cell-based, canine; conditions: COM crystals 200 μg/ml; for inhibition of COM crystal endocytosis by MDCK cells: 10 μg/ml
Protocol: (§5) Madin-Darby Canine Kidney (MDCK) cells were grown in DMEM containing 2% calf serum and 1.6 μM biotin as described previously. To prepare high-density, quiescent cultures 2×10^6 cells/60-mm dish were plated in DMEM containing 2% calf serum and 1.6 μM biotin. The next day medium was aspirated and replaced with fresh medium containing 0.5% calf serum and biotin. One day later the cultures were used for study.
as §4

Balb/c3T3 fibroblasts [5] = experiment: Crystal endocytosis by Balb/c3T3 fibroblasts; type: cell-based; conditions: COM crystals 200 μg/ml; for effect on crystal uptake by fibroblasts: 10 μg/ml
Protocol: (§6) Balb/c3T3 fibroblasts were grown in DMEM containing 10% calf serum. To prepare high-density, quiescent cultures, 7×10^5 cells were plated per 60-mm dish. Two days later the medium was aspirated and replaced with fresh medium containing 1% calf serum and 1.6 μM biotin; the cells were used one day later when a density of […] was reached.
as §4

BSC-1 cells [6] = experiment: Endocytosis of agent-coated COM crystals by BSC-1 cells; type: cell-based, African green monkey; conditions: THP 5×10^−8 M; 6×10^−10M in the medium
From the text: as §4

MDCK cells [7] = experiment: [14C]COM crystal adhesion to MDCK cells; type: cell-based, canine; conditions: 0.55 μM heparin
Protocol: as §5, §2, §3

Balb/c3T3 fibroblasts [8] = experiment: [14C]COM crystal adhesion to 3T3 fibroblasts; type: cell-based; conditions: 0.55 μM heparin; COM crystals 200 μg/ml
Protocol: as §6, §2, §3

Compound | effect on adhesion of COM crystals to BSC-1 cells (in words) (BSC-1 cells [1]) | concentration above which COM crystal adhesion was inhibited (BSC-1 cells [1]) | IC50 (BSC-1 cells [1]) | Kd (BSC-1 cells [1]) | adhesion of crystals previously coated with the molecule (BSC-1 cells [3]) | other results
CC(=O)NC1C(O)OC(CO)C(O)C1OC1OC(C(=O)O)=CC(O)C1O (centres unmarked) [0-S] | without effect | – | – | – | – | –
CC(=O)NC1C(O)OC(CO)C(OS(=O)(=O)O)C1OC1OC(C(=O)O)=CC(O)C1O (centres unmarked) [4-S] | without effect | – | – | – | – | –
CC(=O)NC1C(O)OC(COS(=O)(=O)O)C(O)C1OC1OC(C(=O)O)=CC(O)C1O (centres unmarked) [6-S] | without effect | – | – | – | – | –
Nc1ncnc2c1ncn2[C@@H]1O[C@H](COP(=O)(O)OP(=O)(O)O)[C@@H](O)[C@H]1O [ADP, adenosine diphosphate] | – | – | – | – | – | increase in COM crystal uptake compared to control (BSC-1 cells [2]; ADP 2 μM): 52%; combined stimulatory effects on COM crystal endocytosis (BSC-1 cells [2]): not additive
O=C(O)CC(CC(=O)O)(OP(=O)(O)O)C(=O)O [Phosphocitrate] | – | above 50 μM | 50000 nM | 43800 nM | – | –
O=C(O)CC(O)(CC(=O)O)C(=O)O [Sodium citrate] | inhibited binding of COM crystals | above 250 μM | – | 431000 nM | – | IC50 (BSC-1 cells [1]; Chlorocebus sabaeus, BSC-1): 200000 nM
Chondroitin sulfate A | prevented binding of COM crystals | above 1.4 μM | 600 nM | 38 nM | – | –
Chondroitin sulfate B | prevented binding of COM crystals | > 0.4 µM | 100 nM | 206 nM | less than control | –
Chondroitin sulfate C | – | – | – | – | – | Half-maximal concentration (BSC-1 cells [1]): N.I.; effect on COM crystal adherence (BSC-1 cells [1]; concentrations as high as 37 μM): no effect; Langmuir affinity constant (dissociation constant) (BSC-1 cells [1]): N.I.
Dextran sulfate | – | > 0.01 µM | 10 nM | 13 nM | less than control | –
EGF: epidermal growth factor, mitogen | – | – | – | – | – | combined stimulatory effects on COM crystal endocytosis (BSC-1 cells [2]): not additive; increase in COM crystal endocytosis compared to control (BSC-1 cells [2]; EGF 10 ng/ml): 55%
Fibronectin | – | – | – | – | – | maximal inhibition of COM crystal endocytosis (BSC-1 cells [2]; fibronectin 2.5 μg/ml): 33%; inhibition of COM crystal endocytosis by MDCK cells (MDCK cells [4]): 59%; effect on crystal uptake by fibroblasts (Balb/c3T3 fibroblasts [5]): did not alter crystal uptake by fibroblasts
Heparan sulfate | prevented binding of COM crystals | above 0.8 μM | 100 nM | 881 nM | – | effect on endocytosis of COM crystals (BSC-1 cells [2]; heparan sulfate 2-25 μg/ml): did not alter endocytosis of COM crystals
Hyaluronic acid | prevented binding of COM crystals | above 0.01 μM | 20 nM | 13 nM | – | –
Pentosan polysulfate | – | above 0.33 μM | 20 nM | 131 nM | – | –
Polyarginine | – | – | – | – | to the same extent as did uncoated crystals | Half-maximal concentration (BSC-1 cells [1]): N.I.; effect on adhesion of COM crystals (BSC-1 cells [1]): no effect; Langmuir affinity constant (dissociation constant) (BSC-1 cells [1]): N.I.
Polyaspartic acid | blocked adherence of COM crystals | above 0.007 μM | 7 nM | 23 nM | less than control | –
Polyglutamic acid | blocked adherence of COM crystals | > 0.02 µM | 10 nM | 26 nM | less than control | –
Polylysine | – | – | 2500 nM | – | to the same extent as did uncoated crystals | effect on adhesion of COM crystals (BSC-1 cells [1]): no effect
Polyvinyl sulfate | – | > 0.1 µM | 20 nM | 49 nM | – | –
THP: urinary Tamm-Horsfall glycoprotein, most abundant protein in human urine | no effect | – | – | – | – | Half-maximal concentration (BSC-1 cells [1]): N.I.; effect on adhesion of COM crystals to BSC-1 cells (in words) (BSC-1 cells [1]; listed as Tamm-Horsfall glycoprotein): did not; Langmuir affinity constant (dissociation constant) (BSC-1 cells [1]): N.I.; decrease in COM crystal endocytosis (BSC-1 cells [2]; THP 5×10−8 M): 34%; decrease in COM crystal endocytosis (BSC-1 cells [2]; THP 10^−8 M): 21%; endocytosis of crystals incubated with THP and added directly without centrifuging (BSC-1 cells [6]): to the same extent as uncoated crystals
Uropontin: urinary glycoprotein, inhibitor of COM crystal growth | inhibited binding of COM crystals; also recorded: blocking adhesion of COM crystals to BSC-1 cells | – | 20 nM | 43 nM | less than control | block of COM crystal binding (BSC-1 cells [1]; uropontin 0.1 μM): 73%
albumin | – | – | – | – | to the same extent as did uncoated crystals | –
arginine-glycine-aspartic acid-serine [RGDS] | – | – | – | – | – | inhibition of COM crystal endocytosis compared to control (BSC-1 cells [2]; RGDS 5 μg/ml): 30%; combined inhibitory effects on COM crystal endocytosis (BSC-1 cells [2]): not additive; maximal inhibition of COM crystal endocytosis (BSC-1 cells [2]; RGDS at higher concentrations (above 5 μg/ml)): 41%; inhibition of COM crystal endocytosis by MDCK cells (MDCK cells [4]): 48%; effect on crystal uptake by fibroblasts (Balb/c3T3 fibroblasts [5]): did not alter crystal uptake by fibroblasts
heparin | blocked | – | 15 nM | 43 nM | less than control | adhesion of crystals after heparin added later than crystals (BSC-1 cells [1]; heparin 10 μg/ml (0.55 μM) added 1 to 30 minutes after crystals, measured after 60 minutes): appeared to stop immediately; displacement of crystals already bound to cells (BSC-1 cells [1]; heparin 10 μg/ml present for up to an additional 55 minutes): did not appear to displace crystals already bound to cells; decrease in adherence of COM crystals (BSC-1 cells [1]; heparin 18,000 Da at 0.006 μM): 33%; Maximal inhibition of COM crystal adhesion (BSC-1 cells [1]; heparin 18,000 Da at concentrations above 0.028 μM): 95%; maximal inhibition of adhesion of COM crystals to MDCK cells (MDCK cells [7]): 89%; decrease in adhesion of COM crystals to 3T3 fibroblasts (Balb/c3T3 fibroblasts [8]): 85%; combined inhibitory effects on COM crystal endocytosis (BSC-1 cells [2]): not additive; decrease in COM crystal endocytosis compared to control (BSC-1 cells [2]; heparin 2 μg/ml): 36%; effect on COM crystal uptake at higher concentration (BSC-1 cells [2]; heparin as high as 100 μg/ml): did not inhibit uptake further; inhibition of COM crystal endocytosis in MDCK cells (MDCK cells [4]; heparin): 60%; inhibition of COM crystal endocytosis in fibroblasts (Balb/c3T3 fibroblasts [5]; heparin): 24%
protamine sulfate | – | – | – | – | – | effect on heparin inhibition of crystal binding, added after heparin (BSC-1 cells [1]; after 30 minutes exposure to heparin): completely reversed inhibition of crystal binding; effect on heparin inhibition of crystal adhesion, added together with heparin (BSC-1 cells [1]; protamine sulfate 100 μg/ml with heparin 10 μg/ml): abolished the polyanion's inhibitory effect; effect on crystal adhesion, alone (BSC-1 cells [1]; protamine sulfate alone): inert

Reference: patent US6482934B1, “Methods and compositions for detecting and treating kidney diseases associated with adhesion of crystals to kidney cells” (ARCH Development Corp., priority 1995, dated 2002)
